Article PMC3534858 (Bioorganic & medicinal chemistry letters, 2012)

What was measured:
[1] = molecular target: T1, mouse TP receptor (Mus musculus, UniProt P30987); experiment: Suppression of signaling through mouse TP receptor; type: cell-based
T1 sequence (P30987 1-341): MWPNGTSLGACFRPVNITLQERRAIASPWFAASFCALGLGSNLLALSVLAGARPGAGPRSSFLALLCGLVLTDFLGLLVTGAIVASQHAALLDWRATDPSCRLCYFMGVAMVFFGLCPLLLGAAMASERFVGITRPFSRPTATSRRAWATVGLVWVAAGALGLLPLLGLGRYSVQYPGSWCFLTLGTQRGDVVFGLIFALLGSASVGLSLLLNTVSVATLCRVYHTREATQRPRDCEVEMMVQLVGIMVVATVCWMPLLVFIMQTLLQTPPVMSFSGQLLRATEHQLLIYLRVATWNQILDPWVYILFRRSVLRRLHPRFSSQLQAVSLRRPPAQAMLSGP

[2] = Intrinsic clearance by mouse liver microsomes; type: in vitro ADME; conditions: for CLHEP (predicted hepatic clearance): estimated from Clint, mouse hepatic blood flow QH 90 mL/min/kg
[3] = Metabolite identification in hepatic subcellular fractions; type: in vitro ADME; conditions: NADPH-independent hydrolysis and NADPH-dependent oxidation
[4] = test system: phenylephrine vasoconstriction; experiment: Phenylephrine pressor response control in anesthetized mice; type: in vivo, mouse; conditions: phenylephrine 10 μg/kg; data not shown
[5] = molecular target: T2, mouse EP1 receptor (Mus musculus, UniProt P35375); conditions: for Schild regression slope m: representative experiment, six antagonist concentrations, agonist 17PTPGE2
T2 sequence (P35375 1-405): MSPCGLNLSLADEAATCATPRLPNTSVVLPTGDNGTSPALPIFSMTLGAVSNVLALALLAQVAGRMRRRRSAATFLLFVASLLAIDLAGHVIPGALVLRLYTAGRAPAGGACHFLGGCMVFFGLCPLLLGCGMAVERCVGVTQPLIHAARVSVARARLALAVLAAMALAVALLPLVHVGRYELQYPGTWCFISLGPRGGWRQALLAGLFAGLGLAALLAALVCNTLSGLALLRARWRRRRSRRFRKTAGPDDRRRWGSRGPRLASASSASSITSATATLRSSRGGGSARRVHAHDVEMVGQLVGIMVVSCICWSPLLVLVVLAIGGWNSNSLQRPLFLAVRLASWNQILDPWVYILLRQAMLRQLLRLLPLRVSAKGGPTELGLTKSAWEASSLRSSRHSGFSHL

[6] = test system: human thromboxane (TP) receptor; conditions: cited from earlier work
[7] = In vivo pharmacokinetics of 7 in mice; conditions: mouse, plasma, iv, 1 mg/kg
[8] = test system: human EP1 receptor; conditions: cited from earlier work
[9] = several species; cited from earlier work

IC50 [1] [nM]	CLHEP (predicted hepatic clearance) [2] [mL/min/kg]	CLint scaled ([2]; mouse, liver microsomes) [mL/min/kg]	Compound	other results
> 1000	88.4	5040	Cc1ccc(S(=O)(=O)NC(=O)c2cccc(Cc3cc(Cl)ccc3OCc3ccc(Cl)cc3F)n2)cc1 [Compound 19]	–
> 1000	–	–	CCC(C)NC(=O)c1cccc(Cc2cc(Cl)ccc2OCc2ccc(Cl)cc2F)n1 (centres unmarked) [Compound 12]	–
> 1000	89.2	9810	CC(C)CNC(=O)c1cccc(Cc2cc(Cl)ccc2OCc2ccc(Cl)cc2F)n1 [Compound 11]	Biotransformation in metabolite identification studies [3]: extensive biotransformation
> 1000	88.9	7160	CCN(CC)C(=O)c1cccc(Cc2cc(Cl)ccc2OCc2ccc(Cl)cc2F)n1 [Compound 14]	–
> 1000	–	–	O=C(NC1CC2CCC1C2)c1cccc(Cc2cc(Cl)ccc2OCc2ccc(Cl)cc2F)n1 (centres unmarked) [Compound 15]	–
> 1000	86.6	2260	O=C(NS(=O)(=O)c1ccc(Cl)cc1)c1cccc(Cc2cc(Cl)ccc2OCc2ccc(Cl)cc2F)n1 [Compound 17]	Biotransformation in metabolite identification studies [3]: extensive biotransformation; Effect of pretreatment on phenylephrine pressor activity [4]: unaffected; Kd [5]: 86.5 nM; Schild regression slope m [5]: 1.20 ± 0.12; Clint (intrinsic clearance) ([2]; mouse, liver microsomes): less stable in mouse hepatic microsomes than 7
> 1000	–	–	O=C(NS(=O)(=O)c1cc(Cl)ccc1Cl)c1cccc(Cc2cc(Cl)ccc2OCc2ccc(Cl)cc2F)n1 [Compound 18]	–
> 1000	–	–	NC(=O)c1cccc(Cc2cc(Cl)ccc2OCc2ccc(Cl)cc2F)n1 [Compound 16]	–
> 1000	–	–	O=C(NC1CCC1)c1cccc(Cc2cc(Cl)ccc2OCc2ccc(Cl)cc2F)n1 [Compound 10]	–
> 1000	–	–	CCCS(=O)(=O)NC(=O)c1cccc(Cc2cc(Cl)ccc2OCc2ccc(Cl)cc2F)n1 [Compound 20]	–
912	43.6	84.7	O=C(O)c1cccc(Cc2cc(Cl)ccc2OCc2ccc(Cl)cc2F)n1 [Compound 7, reference compound]	Concentration suppressing mouse TP signaling relative to human receptor ([1]; mouse TP vs human TP): 100 fold; Interaction with the human thromboxane (TP) receptor [6]: high-affinity interaction; half-life [7]: > 60 min; Kd [5]: 52.1 nM; Functional antagonism of mEP1 in vitro ([5]; Schild analysis): functional antagonist of mEP1; Schild regression slope m [5]: 0.953 ± 0.085; Affinity for the human EP1 receptor [8]: good affinity; Stability in microsomes and S9 fractions [9]: stable
> 1000	–	–	O=C(c1cccc(Cc2cc(Cl)ccc2OCc2ccc(Cl)cc2F)n1)N1CCCC1 [Compound 9]	mEP1 pKD ([5]; Schild analysis, mean ± SEM of at least two independent experiments in duplicate): 4.80 ± 0.05
> 1000	87.4	2990	O=C(NS(=O)(=O)c1ccc(Cl)c(Cl)c1)c1cccc(Cc2cc(Cl)ccc2OCc2ccc(Cl)cc2F)n1 [Compound 21]	–
> 1000	89.3	11400	O=C(NCC1CC1)c1cccc(Cc2cc(Cl)ccc2OCc2ccc(Cl)cc2F)n1 [Compound 8]	–
> 1000	–	–	CC(C)(C)NC(=O)c1cccc(Cc2cc(Cl)ccc2OCc2ccc(Cl)cc2F)n1 [Compound 13]	–
